In general, pEC50 refers to the EC50 on a negative log10 scale, so that one unit is a factor of ten. Broadly, the CC50 is the concentration at which the toxic effect on the cells reaches its halfway point. Read a high CC50 as better tolerance by the cells.

This note sets out measurements from patent US20210220356A1, “DIHYDROPYRIMIDINE DERIVATIVES AND USES THEREOF IN THE TREATMENT OF HBV INFECTION OR OF HBV-INDUCED DISEASES” (Janssen Sciences Ireland Unlimited Company, priority 2018, published 2021).

For one data set, the system named is HBV. The data set can be described thus: HBV inhibitory activity in HepG2.2.15 cells (HBV DNA in culture medium by q-PCR). The format is cell-based. The following applies: HepG2.2.15 cells, 40,000 cells/well, 6 days of compound treatment, HBV DNA in culture medium by q-PCR, highest concentration 10 uM, read-out: EC50. How it is done:
(§1) • HepG2.2.15 (the HepG2.2.15 cell line can be produced by transfection of the HepG2 cell line as described in Sells, Chen, and Acs 1987 (Proc. Natl. Acad. Sci. USA 84: 1005-1009), and the HepG2 cell line is available from ATCC® under number HB-8065™)
(§2) Seed the cell HepG2.2.15 cells into 96-well plate in 2% FBS culture medium at the density of 40,000 cells/well and 5,000 cells/well for HBV inhibitory activity and cytotoxicity determination, respectively. After seeding, incubate the cell plates at 37° C., 5% CO2 overnight. The next day, medium containing compounds is added to the cell to treat the cells for 6 days with medium refreshed once in the middle of the treatment. 8 dose points with 3 folds dilution of each compound were adopted and the highest concentration of the compounds is 10 uM and 100 uM for HBV inhibitory activity and cytotoxicity determination, respectively.
The HBV DAN change in the cell culture medium induced by the compounds is measured by q-PCR method. Briefly, the HBV DNA in the culture medium is extracted using QIAamp 96 DNA Blood Kit according to the manual and then quantified by q-PCR using the primers and probe in the table below.
(§3) EC50 and CC50 values are calculated by the GRAPHPAD PRISM software.

The next data set concerns HepG2.2.15 cells. In words: Cytotoxicity determination in HepG2.2.15 cells (CCK-8). As to conditions: HepG2.2.15 cells, 5,000 cells/well, 6 days of compound treatment, CCK-8 absorbance 450 nm, highest concentration 100 uM. The format is cell-based. How it is done: as §1, §2
After 6 days of compounds treatment, add 20 μl CCK-8 reagents to each well of cytotoxicity assay plates, incubate the plate at 37° C., 5% CO2 for 2.5 h and measure the absorbance at 450 nm wavelength, at the same time read the absorbance at 630 nm wavelength as reference.
as §3

pEC50: −log10 of the molar value. Read-outs that look alike come from different tables or passages of the source. Bounds are passed on as bounds.

As for `COC(=O)C1=C(C2CCc3nn(CCC(=O)O)cc3C2)NC(c2nccs2)=NC1c1ccc(F)cc1Cl` (single isomer, unassigned) [Compound 47c, 3-(5-(6-(2-Chloro-4-fluorophenyl)-5-(methoxycarbonyl)-2-(thiazol-2-yl)-3,6-dihydropyrimidin-4-yl)-4,5,6,7-tetrahydro-2H-indazol-2-yl)propanoic acid], in the data set with HBV, the pEC50 is 6.83. Also, the CC50 in the data set with HepG2.2.15 cells was over 100 µM.
Take `COC(=O)C1=C(C2CCc3nn(CCC(=O)O)cc3C2)NC(c2nccs2)=NC1c1ccc(F)cc1Br` (single isomer, unassigned) [Compound 48b, 3-(5-(6-(2-Bromo-4-fluorophenyl)-5-(methoxycarbonyl)-2-(thiazol-2-yl)-3,6-dihydropyrimidin-4-yl)-4,5,6,7-tetrahydro-2H-indazol-2-yl)propanoic acid]: the pEC50 in the data set on HBV is 6.22. Besides, in the data set on HepG2.2.15 cells, the CC50 amounted to 80 µM.
For the compound `COC(=O)C1=C(C2CCc3nn(CCC(=O)O)cc3C2)NC(c2nccs2)=NC1c1ccc(F)cc1Br` (single isomer, unassigned) [Compound 48d, 3-(5-(6-(2-Bromo-4-fluorophenyl)-5-(methoxycarbonyl)-2-(thiazol-2-yl)-3,6-dihydropyrimidin-4-yl)-4,5,6,7-tetrahydro-2H-indazol-2-yl)propanoic acid], in the data set with HBV, the pEC50 is 7.52. Moreover, in the data set on HepG2.2.15 cells, half-maximal cytotoxicity (CC50) was put at 34.3 µM.
As for `CCOC(=O)C1=C(C2CCc3nn(CC(=O)O)cc3C2)NC(c2nccs2)=NC1c1ccc(F)c(F)c1Cl` (single isomer, unassigned) [Compound 49c], in the data set on HBV, the pEC50 is 6.96. The compound also gave a CC50 with HepG2.2.15 cells of 25.4 µM.
For `CCOC(=O)C1=C(C2CCc3nn(CCCC(=O)O)cc3C2)NC(c2nccs2)=NC1c1ccc(F)c(F)c1Cl` (single isomer, unassigned) [Compound 50c, 4-(5-(6-(2-Chloro-3,4-difluorophenyl)-5-(ethoxycarbonyl)-2-(thiazol-2-yl)-3,6-dihydropyrimidin-4-yl)-4,5,6,7-tetrahydro-2H-indazol-2-yl)butanoic acid], the pEC50 in the data set with HBV was over 8.34. Half-maximal cytotoxicity with HepG2.2.15 cells (CC50) was put at 11.9 µM.
With `CCOC(=O)C1=C(C2CCc3nn(C(C)CC(=O)O)cc3C2)NC(c2nccs2)=NC1c1ccc(F)c(F)c1Cl` (single isomer, unassigned) [Compound 51c, 3-(5-(6-(2-chloro-3,4-difluorophenyl)-5-(ethoxycarbonyl)-2-(thiazol-2-yl)-3,6-dihydropyrimidin-4-yl)-4,5,6,7-tetrahydro-2H-indazol-2-yl)butanoic acid], the pEC50 with HBV is 8.01. Besides, in the data set with HepG2.2.15 cells, the CC50 was 8.6 µM.
For the compound `CCOC(=O)C1=C(C2CCc3nn(C(C)CC(=O)O)cc3C2)NC(c2nccs2)=NC1c1ccc(F)c(F)c1Cl` (single isomer, unassigned) [Compound 52d, 3-(5-(6-(2-chloro-3,4-difluorophenyl)-5-(ethoxycarbonyl)-2-(thiazol-2-yl)-3,6-dihydropyrimidin-4-yl)-4,5,6,7-tetrahydro-2H-indazol-2-yl)butanoic acid], the pEC50 in the data set on HBV was 7.91. Also, half-maximal cytotoxicity in the data set on HepG2.2.15 cells (CC50) was put at 10.5 µM.
Taken in the same sequence, the figures for `CCOC(=O)C1=C(C2CCc3nn(CC(C)(C)C(=O)O)cc3C2)NC(c2nccs2)=NC1c1ccc(F)c(F)c1Cl` (single isomer, unassigned) [Compound 53b, 3-(5-(6-(2-Chloro-3,4-difluorophenyl)-5-(ethoxycarbonyl)-2-(thiazol-2-yl)-3,6-dihydropyrimidin-4-yl)-4,5,6,7-tetrahydro-2H-indazol-2-yl)-2,2-dimethylpropanoic acid] were 6.98 and 11.9 µM.
Taken in the same sequence, the figures for `CCOC(=O)C1=C(C2CCc3nn(CC(C)(C)C(=O)O)cc3C2)NC(c2nccs2)=NC1c1ccc(F)c(F)c1Cl` (single isomer, unassigned) [Compound 53c, 3-(5-(6-(2-Chloro-3,4-difluorophenyl)-5-(ethoxycarbonyl)-2-(thiazol-2-yl)-3,6-dihydropyrimidin-4-yl)-4,5,6,7-tetrahydro-2H-indazol-2-yl)-2,2-dimethylpropanoic acid] were over 8.34 and 10.9 µM.
Taken in the same sequence, the figures for `CCOC(=O)C1=C(C2CCc3oc(CCC(=O)O)nc3C2)NC(c2nccs2)=NC1c1ccc(F)c(F)c1Cl` (single isomer, unassigned) [Compound 57f, 3-(5-(6-(2-Chloro-3,4-difluorophenyl)-5-(ethoxycarbonyl)-2-(thiazol-2-yl)-3,6-dihydropyrimidin-4-yl)-4,5,6,7-tetrahydrobenzo[d]oxazol-2-yl)propanoic acid] were 7.04 and 12.6 µM.
Take `CCOC(=O)C1=C(C2CCc3nc(CCC(=O)O)oc3C2)NC(c2nccs2)=NC1c1ccc(F)c(F)c1Cl` (single isomer, unassigned) [Compound 58d, 3-(6-(6-(2-Chloro-3,4-difluorophenyl)-5-(ethoxycarbonyl)-2-(thiazol-2-yl)-3,6-dihydropyrimidin-4-yl)-4,5,6,7-tetrahydrobenzo[d]oxazol-2-yl)propanoic acid]: in the data set with HBV, the pEC50 is 8.04. For the same compound, the midpoint of cytotoxicity in the data set with HepG2.2.15 cells, the CC50, lay at 10.8 µM.
Consider `CCOC(=O)C1=C(C2CCc3sc(CCC(=O)O)nc3C2)NC(c2nccs2)=NC1c1ccc(F)c(F)c1Cl` (single isomer, unassigned) [Compound 59f, 3-(5-(6-(2-Chloro-3,4-difluorophenyl)-5-(ethoxycarbonyl)-2-(thiazol-2-yl)-3,6-dihydropyrimidin-4-yl)-4,5,6,7-tetrahydrobenzo[d]thiazol-2-yl)propanoic acid], for which, in the data set on HBV, the pEC50 is 6.68. In the data set with HepG2.2.15 cells, the CC50 is 5.8 µM.
`CCOC(=O)C1=C(C2CCc3nc(CCC(=O)O)sc3C2)NC(c2nccs2)=NC1c1ccc(F)c(F)c1Cl` (single isomer, unassigned) [Compound 60c, 3-(6-(6-(2-Chloro-3,4-difluorophenyl)-5-(ethoxycarbonyl)-2-(thiazol-2-yl)-3,6-dihydropyrimidin-4-yl)-4,5,6,7-tetrahydrobenzo[d]thiazol-2-yl)propanoic acid]: the pEC50 in the data set on HBV was 7.87. Moreover, in the data set on HepG2.2.15 cells, the CC50 was 5.5 µM.
In the case of `CCOC(=O)C1=C(C2CCc3cn(CCC(=O)O)nc3C2)NC(c2nccs2)=NC1c1ccc(F)c(F)c1Cl` (single isomer, unassigned) [Compound 61a, 3-(6-(6-(2-Chloro-3,4-difluorophenyl)-5-(ethoxycarbonyl)-2-(thiazol-2-yl)-3,6-dihydropyrimidin-4-yl)-4,5,6,7-tetrahydro-2H-indazol-2-yl)propanoic acid], the pEC50 in the data set on HBV is 7.21. This compound registered a CC50 in the data set with HepG2.2.15 cells of 4.8 µM.
Regarding `CCOC(=O)C1=C(C2CCc3cn(CCC(=O)O)nc3C2)NC(c2nccs2)=NC1c1ccc(F)c(F)c1Cl` (single isomer, unassigned) [Compound 61c, 3-(6-(6-(2-Chloro-3,4-difluorophenyl)-5-(ethoxycarbonyl)-2-(thiazol-2-yl)-3,6-dihydropyrimidin-4-yl)-4,5,6,7-tetrahydro-2H-indazol-2-yl)propanoic acid], the pEC50 with HBV was 6.90. Further, the CC50 in the data set with HepG2.2.15 cells came out at 29 µM.
With `COC(=O)C1=C(C2CCc3[nH]ncc3C2)NC(c2nccs2)=NC1c1ccc(F)c(F)c1Cl` (single isomer, unassigned) [Compound 65b, Methyl 4-(2-chloro-3,4-difluorophenyl)-6-(4,5,6,7-tetrahydro-1H-indazol-5-yl)-2-(thiazol-2-yl)-1,4-dihydropyrimidine-5-carboxylate], the pEC50 in the data set on HBV is 5.57. Besides, the CC50 in the data set on HepG2.2.15 cells came out at 6.3 µM.
In the case of `COC(=O)C1=C(C2CCc3nc([C@H]4C[C@H](C(=O)O)C4)sc3C2)NC(c2nccs2)=NC1c1ccc(F)c(F)c1Cl` (single isomer, unassigned) [Compound 68b, (trans)-3-(-6-(-6-(2-chloro-3,4-difluorophenyl)-5-(methoxycarbonyl)-2-(thiazol-2-yl)-3,6-dihydropyrimidin-4-yl)-4,5,6,7-tetrahydrobenzo[d]thiazol-2-yl)cyclobutanecarboxylic acid], the pEC50 with HBV (Hepatitis B virus, HepG2.2.15, 144 h) was 8.05. The compound also yielded a CC50 in the data set on HepG2.2.15 cells of 8.3 µM.
Regarding `COC(=O)C1=C(C2CCc3nc([C@H]4C[C@H](C(=O)O)C4)sc3C2)NC(c2nccs2)=NC1c1ccc(F)c(F)c1Cl` (single isomer, unassigned) [Compound 68c, (trans)-3-(6-(-6-(2-chloro-3,4-difluorophenyl)-5-(methoxycarbonyl)-2-(thiazol-2-yl)-3,6-dihydropyrimidin-4-yl)-4,5,6,7-tetrahydrobenzo[d]thiazol-2-yl)cyclobutanecarboxylic acid], the pEC50 with HBV is 8.19. Further, the CC50 with HepG2.2.15 cells amounted to 3.6 µM.
